Data from patent US4393003A, “β-Lactamase inhibitors” (Hoffmann-La Roche Inc., priority 1981, dated 1983).
pIC50: −log10 of the molar value. Like-named read-outs stand apart in the source and are kept apart here.

Tests used:
[1] = biological target: T1, constitutive broad-spectrum TEM type beta-lactamase mediated by the resistance transfer factor R1 in Escherichia coli 1263B (Escherichia coli, UniProt P62593); test: Cell-free enzyme assay, inhibition of nitrocefin hydrolysis; assay type: biochemical; settings: preincubated with enzyme 20 min, 30° C., pH 7; nitrocefin substrate; read-out: I50, Escherichia coli R1
T1 construct: mediated by the resistance transfer factor R1 in Escherichia coli 1263B; endogenous in cells; host or cells: Escherichia coli 1263B carrying resistance transfer factor R1
T1 sequence (P62593 24-286 limits assumed): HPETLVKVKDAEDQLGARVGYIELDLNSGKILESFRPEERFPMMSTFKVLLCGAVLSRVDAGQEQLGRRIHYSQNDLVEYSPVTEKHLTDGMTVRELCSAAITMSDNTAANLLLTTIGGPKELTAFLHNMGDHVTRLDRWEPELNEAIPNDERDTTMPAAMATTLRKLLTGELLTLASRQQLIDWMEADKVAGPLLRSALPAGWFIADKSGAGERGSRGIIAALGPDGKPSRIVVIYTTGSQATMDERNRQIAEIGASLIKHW
Experimental: (§1) The test compound is preincubated with enzyme for 20 min. at 30° C. and pH 7. Chromogenic cephalosporin substrate, nitrocefin, is added and its initial rate of hydrolysis is recorded spectrophotometrically. Three enzyme preparations were employed:
(b) the constitutive broad-spectrum TEM type beta-lactamase mediated by the resistance transfer factor R1 in Escherichia coli 1263B, and
(§2) Included for comparison purposes were the antibiotics cloxacillin and dicloxacillin. I50 (μM) is calculated as the concentration necessary to inhibit the rate of nitrocefin hydrolysis by 50%.

[2] = biological target: T2, inducible penicillinase from Staphylococcus aureus 1059B (Staphylococcus aureus, UniProt P00807); test: as above; assay type: biochemical
T2 construct: the inducible penicillinase from Staphylococcus aureus 1059B; endogenous in cells; host or cells: Staphylococcus aureus 1059B
T2 sequence (P00807 25-281): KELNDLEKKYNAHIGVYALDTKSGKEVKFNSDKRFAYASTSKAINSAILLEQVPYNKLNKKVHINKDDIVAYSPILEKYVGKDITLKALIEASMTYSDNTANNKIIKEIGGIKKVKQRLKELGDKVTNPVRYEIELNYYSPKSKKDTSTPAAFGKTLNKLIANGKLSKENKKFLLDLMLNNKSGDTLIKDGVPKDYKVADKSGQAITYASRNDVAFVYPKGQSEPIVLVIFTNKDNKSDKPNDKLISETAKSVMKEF
Experimental: as §1
(a) the inducible penicillinase from Staphylococcus aureus 1059B,
as §2

[3] = biological target: T3, type Ia cephalosporinase from Enterobacter cloacae (Enterobacter cloacae, UniProt P05364); test: as above; assay type: biochemical
T3 construct: purchased Miles Laboratories
T3 sequence (P05364 21-381): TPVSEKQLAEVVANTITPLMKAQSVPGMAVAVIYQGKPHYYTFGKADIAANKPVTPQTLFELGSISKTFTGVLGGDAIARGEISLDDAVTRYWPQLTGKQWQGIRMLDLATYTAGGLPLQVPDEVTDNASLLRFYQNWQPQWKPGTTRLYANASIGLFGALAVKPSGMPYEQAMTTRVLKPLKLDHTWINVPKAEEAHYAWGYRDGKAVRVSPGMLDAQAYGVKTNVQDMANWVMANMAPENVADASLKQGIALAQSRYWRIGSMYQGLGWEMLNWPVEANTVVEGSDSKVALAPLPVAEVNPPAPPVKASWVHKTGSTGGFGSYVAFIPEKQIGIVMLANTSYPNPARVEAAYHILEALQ
Experimental: as §1
(c) the type Ia cephalosporinase from Enterobacter cloacae purchased from Miles Laboratories.
as §2

S. Marcescens S5 = test: In vitro MIC by agar dilution, alone and mecillinam potentiation; assay type: cell-based; settings: single agent, Mueller-Hinton agar, overnight 37° C.
Experimental: (§3) The efficacy of putative β-lactamase inhibitors is assessed by determining the effect of the test compounds on the minimal inhibitory concentrations (MICs) of β-lactamase-sensitive antibiotics against bacterial strains known to produce β-lactamases.
(§4) The antibacterial activity of the β-lactamase inhibitor against the test strains is determined by a standard agar dilution method. Serial two-fold dilutions of the β-lactamase inhibitor are prepared in water to give concentrations 10 times the final desired concentrations. The aqueous dilutions are then further diluted 1:10 in Mueller-Hinton (MH) agar. These agar mixtures are poured into petri plates and allowed to harden. Each plate, including a drug-free control plate, is inoculated by means of a Steers replicator with 0.05 mL of 10^-4 dilutions of the test organisms. The 10^'4 dilutions of the organisms are prepared in MH broth from overnight TS broth cultures. The plates are examined for growth after overnight incubation at 37° C. The lowest drug concentration at which three or fewer colonies are observed is considered to be the MIC.
(§5) The β-lactamase inhibitor is then tested for potentiation of the antibiotic mecillinam. Aqueous solutions are prepared containing serial two-fold dilutions of mecillinam in the presence of the β-lactamase inhibitor at a constant concentration 2-4 fold less than its MIC for the most sensitive of the test organisms. The same procedure as above is then followed. Controls include a drug-free plate and a plate containing the β-lactamase inhibitor at the concentration used in the test. The MIC of mecillinam as a single agent is also determined at the same time.

E. Coli 7289 = test: as above; assay type: cell-based; settings: single agent, Mueller-Hinton agar, overnight 37° C.
Experimental: as §3, §4, §5

P. Aeruginosa 5700 = test: as above; assay type: cell-based
Experimental: as §3, §4, §5

E. Coli ST 323 = test: as above; assay type: cell-based; settings: single agent, Mueller-Hinton agar, overnight 37° C.
Experimental: as §3, §4, §5

E. Cloacae P99 = test: as above; assay type: cell-based
Experimental: as §3, §4, §5

E. Coli K12R1 = test: as above; assay type: cell-based; settings: single agent, Mueller-Hinton agar, overnight 37° C.
Experimental: as §3, §4, §5

[4] = preincubated with enzyme 20 min, 30° C., pH 7, nitrocefin substrate, read-out: I50, Staphylococcus aureus
[5] = preincubated with enzyme 20 min, 30° C., pH 7, nitrocefin substrate, read-out: I50, Enterobacter cloacae
[6] = Escherichia coli, read-out: MIC

With Cc1onc(-c2ccccc2Cl)c1C(=O)N[C@@H]1C(=O)N2[C@@H]1SC(C)(C)[C@@H]2C(=O)O [Cloxacillin] the pIC50 [1] was 4.17, the pIC50 [2, 4] was 3.44 and the pIC50 [3, 5] was 8.82.
Cc1onc(-c2c(Cl)cccc2Cl)c1C(=O)N[C@@H]1C(=O)N2[C@@H]1SC(C)(C)[C@@H]2C(=O)O [Dicloxacillin] was tested, and the pIC50 [1] was 4.49, the pIC50 [2, 4] was 4.02 and the pIC50 [3, 5] was 8.85.
In the case of CC1(C)S[C@@H]2[C@H](/N=C/N3CCCCCC3)C(=O)N2[C@H]1C(=O)O [Mecillinam, mecillinam], the MIC (S. Marcescens S5; Serratia marcescens, read-out: MIC) was 4 µg/mL, the MIC (E. Coli 7289; [6]) was 32 µg/mL and the MIC (P. Aeruginosa 5700; Pseudomonas aeruginosa) was > 128 µg/mL. The MIC (E. Coli ST 323; [6]) was 4 µg/mL, the MIC (E. Cloacae P99; Enterobacter cloacae) was 0.03 µg/mL and the MIC (E. Coli K12R1; [6]) was 1 µg/mL.
With C[C@]12C[C@@]1(C(=O)O)N1C(=O)C[C@H]1S2(=O)=O [compound of formula I, [2S-(2α,4α,6α)]-4-Methyl-8-oxo-5-thia-1-azatricyclo[4.2.0.0^2,4]octane-2-carboxylic acid 5,5-dioxide] the MIC (S. Marcescens S5) was “Inert”, the MIC (E. Coli 7289) was “Inert” and the MIC (P. Aeruginosa 5700; P. Aeruginosa 5700, single agent, Mueller-Hinton agar, overnight 37° C.) was “Inert”. The MIC (E. Coli ST 323) was “Inert”, the MIC (E. Cloacae P99; E. Cloacae P99, single agent, Mueller-Hinton agar, overnight 37° C.) was “Inert” and the MIC (E. Coli K12R1) was “Inert”. For the same molecule, the pIC50 [1] was 5.96, the pIC50 [2] was 5.17 and the pIC50 [3] was 4.16.
